Several values for one entry are separate records, joined by “and”; a condition that tells them apart may be missing. Identical values can stand only once.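 Exposure lasted 48 hours, with cells grown in 96-well plates and compounds tested at five concentrations. GI50 marks 50% less growth. At the TGI there is no net growth.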
What was measured:
Test in all cases: NCI tumour cell line growth inhibition, 48 h
786-0 renal = system: 786-0 renal
KM12 colon = system: KM12 colon
HL-60(TB) leukemia = system: HL-60(TB) leukemia
SN12C renal = system: SN12C renal
HCT-15 colon = system: HCT-15 colon
UO-31 renal = system: UO-31 renal
KM20L2 colon = system: KM20L2 colon
T-47D breast = system: T-47D breast
IGROV1 ovarian = system: IGROV1 ovarian
MDA-N = system: MDA-N

SMILES | TGI (786-0 renal) | TGI (KM12 colon) | TGI (HL-60(TB) leukemia) | TGI (SN12C renal) | TGI (HCT-15 colon) | TGI (UO-31 renal) | TGI (KM20L2 colon) | GI50 (T-47D breast) | TGI (T-47D breast) | TGI (IGROV1 ovarian) | TGI (MDA-N) | GI50 (786-0 renal) | GI50 (KM12 colon) | GI50 (HL-60(TB) leukemia) | GI50 (SN12C renal) | GI50 (HCT-15 colon) | GI50 (UO-31 renal) | GI50 (IGROV1 ovarian) | GI50 (KM20L2 colon) | GI50 (MDA-N)
O=c1c2ccccc2n2n1CC(O)C2 (stereo not given) | > 100 µM | > 100 µM | > 100 µM | > 100 µM | > 100 µM | > 100 µM | > 100 µM | > 100 µM | > 100 µM | > 100 µM |  |  |  |  |  |  |  |  |  | 
O=P(NC12CC3CC(CC(C3)C1)C2)(N1CC1)N1CC1 | > 100 µM | > 100 µM | 98.9 µM | > 100 µM | > 100 µM | > 100 µM | > 100 µM |  | > 100 µM | > 100 µM | > 100 µM |  |  |  |  |  |  |  |  | 
CN(N=O)C(=O)N[C@@H](C=O)[C@@H](O)[C@H](O)[C@H](O)CO | > 750 µM | > 750 µM | > 750 µM | 603 µM and > 750 µM | 666 µM and > 750 µM | > 750 µM | > 750 µM |  | > 750 µM | > 750 µM | > 750 µM | > 750 µM | > 750 µM | > 750 µM | > 750 µM | > 750 µM | > 750 µM | > 750 µM |  | 
O=C([O][Hg][CH2]C1COC([CH2][Hg][O]C(=O)c2ccccc2)CO1)c1ccccc1 (stereo not given) | 8.5 µM and 2.99 µM | 46 µM | 4.54 µM and 21.6 µM | 24.6 µM and 3.02 µM | 5.67 µM and 3.15 µM | 31.5 µM | 32.7 µM | 1.88 µM and 1.7 µM | 4.06 µM and 4.17 µM | 17.2 µM | 25.5 µM and 11.7 µM | 2.88 µM and 1.47 µM | 31.1 µM | 1.68 µM and 1.82 µM | 12.2 µM and 1.54 µM | 2.83 µM and 1.63 µM | 17.7 µM | 8.71 µM | 17.9 µM | 12.5 µM and 3 µM
CC(C)(C)CC(C)(C)c1cc2c(O)c(c1)Cc1cc(C(C)(C)CC(C)(C)C)cc(c1O)Cc1cc(C(C)(C)CC(C)(C)C)cc(c1O)Cc1cc(C(C)(C)CC(C)(C)C)cc(c1O)Cc1cc(C(C)(C)CC(C)(C)C)cc(c1O)Cc1cc(C(C)(C)CC(C)(C)C)cc(c1O)C2 | > 100 µM | > 100 µM | > 100 µM | > 100 µM | > 100 µM | > 100 µM | > 100 µM |  |  | > 100 µM |  |  |  |  |  |  |  |  |  | 
